Assay results published in ChEMBL document CHEMBL1201862, “PubChem BioAssay data set” (2004).
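Test compounds were applied to cells in 96-well plates for 48 hours at 5 doses. Here, GI50 denotes the concentration required for 50% inhibition of growth.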 The source made the active and inactive calls. Rule as the data show it: active = GI50 up to about 1.1 µM and inactive = higher.

How the values were obtained:
Assay in all cases: NCI anticancer screen, dose series, 48 h
[1] = test system: K562
[2] = test system: RXF 393
[3] = test system: SK-MEL-28
[4] = test system: BT-549
[5] = test system: UACC-62
[6] = test system: OVCAR-4
[7] = test system: HCC 2998
[8] = test system: RPMI-8226
[9] = test system: SK-MEL-5
[10] = test system: ACHN
[11] = test system: HCT-116
[12] = test system: MDA-MB-231
[13] = test system: NCI-H460
[14] = test system: MDA-N
[15] = test system: PC-3
[16] = test system: DU-145
[17] = test system: SK-MEL-2
[18] = test system: KM12
[19] = test system: HOP-92

Row | SMILES | GI50 [1] | GI50 [2] | GI50 [3] | GI50 [4] | GI50 [5] | GI50 [6] | GI50 [7] | GI50 [8] | GI50 [9] | GI50 [10] | GI50 [11] | GI50 [12] | GI50 [13] | GI50 [14] | GI50 [15] | GI50 [16] | GI50 [17] | GI50 [18] | GI50 [19]
1 | CN1CCC2(CC1)C(=O)N(NC(N)=O)C(=O)C2c1ccccc1 (centres undefined) | > 100 µM (inactive) | > 100 µM (inactive) | > 100 µM (inactive) | > 100 µM (inactive) | > 100 µM (inactive) | > 100 µM (inactive) | > 100 µM (inactive) | > 100 µM (inactive) | > 100 µM (inactive) | > 100 µM (inactive) | > 100 µM (inactive) | > 100 µM (inactive) | > 100 µM (inactive) | > 100 µM (inactive) | > 100 µM (inactive) | > 100 µM (inactive) | > 100 µM (inactive) | > 100 µM (inactive) | –
2 | Cc1[nH]n(-c2nc(O)c(C)c(=O)[nH]2)c(=O)c1CCO | > 100 µM (inactive) | 22.6 µM (inactive) | > 100 µM (inactive) | > 100 µM (inactive) | > 100 µM (inactive) | > 100 µM (inactive) | – | > 100 µM (inactive) | > 100 µM (inactive) | > 100 µM (inactive) | > 100 µM (inactive) | > 100 µM (inactive) | > 100 µM (inactive) | > 100 µM (inactive) | > 100 µM (inactive) | > 100 µM (inactive) | > 100 µM (inactive) | > 100 µM (inactive) | > 100 µM (inactive)
3 | CC(=O)O[C@H]1CC[C@@]2(C)C(=CC[C@@H]3[C@@H]2CC[C@]2(C)NC(=O)/C(=C\c4ccccc4)C[C@@H]32)C1 | > 100 µM (inactive) | 13 µM (inactive) | 16.8 µM (inactive) | 18.6 µM (inactive) | 14 µM (inactive) | 16.5 µM (inactive) | 21.3 µM (inactive) | 12.3 µM (inactive) | 10.8 µM (inactive) | 21.9 µM (inactive) | 15.6 µM (inactive) | 22.6 µM (inactive) | 26.9 µM (inactive) | 19.6 µM (inactive) | 18.4 µM (inactive) | 15.9 µM (inactive) | 20.4 µM (inactive) | 18.1 µM (inactive) | –
4 | CCOC(=O)C(=O)CC(=O)C1=C(c2ccccc2OC)CC(c2cccs2)=CC1=O | 23.4 µM (inactive) | 86.9 µM (inactive) | > 100 µM (inactive) | > 100 µM (inactive) | > 100 µM (inactive) | – | – | 65.8 µM (inactive) | 44.1 µM (inactive) | > 100 µM (inactive) | 31.7 µM (inactive) | 93.3 µM (inactive) | 48.5 µM (inactive) | 36.1 µM (inactive) | 24 µM (inactive) | > 100 µM (inactive) | 78.9 µM (inactive) | 34.3 µM (inactive) | 71.1 µM (inactive)
5 | COc1ccc(N2C(=O)C3c4[nH]c5c(C)cccc5c4C4CCC(c5ccccc5)CC4C3C2=O)cc1 (centres undefined) | – | – | 12 µM (inactive) | 24.9 µM (inactive) | > 10 µM (inactive) | 11.1 µM (inactive) | > 10 µM (inactive) | 7.55 µM (inactive) | – | 19.7 µM (inactive) | 13.4 µM (inactive) | 16.3 µM (inactive) | 5.68 µM (inactive) | 13.5 µM (inactive) | 12.1 µM (inactive) | 11.7 µM (inactive) | 24.2 µM (inactive) | 12.6 µM (inactive) | 15 µM (inactive)
6 | NC(=O)N/N=C1\C[C@H]2CCCC[C@H]2C1 | > 100 µM (inactive) | – | > 100 µM (inactive) | 42.7 µM (inactive) | > 100 µM (inactive) | > 100 µM (inactive) | > 100 µM (inactive) | > 100 µM (inactive) | > 100 µM (inactive) | > 100 µM (inactive) | > 100 µM (inactive) | > 100 µM (inactive) | > 100 µM (inactive) | > 100 µM (inactive) | > 100 µM (inactive) | > 100 µM (inactive) | > 100 µM (inactive) | > 100 µM (inactive) | > 100 µM (inactive)
7 | Cc1ccc(F)c2[nH]c(-c3ccccc3)cc(=O)c12 | 2.23 µM (inactive) | 3.58 µM (inactive) | 3.11 µM (inactive) | 7.06 µM (inactive) | 3.84 µM (inactive) | > 70.5 µM (inactive) | 11.9 µM (inactive) | 3.96 µM (inactive) | 2.75 µM (inactive) | 8.77 µM (inactive) | 4.73 µM (inactive) | 20.9 µM (inactive) | 5.32 µM (inactive) | 0.897 µM (active) | 8.81 µM (inactive) | 8.04 µM (inactive) | 6.93 µM (inactive) | 3.03 µM (inactive) | –
8 | CNC(=O)c1ccccc1[S+]1c2cccc3cccc(c23)C(=O)N1C (centres undefined) | > 100 µM (inactive) | > 100 µM (inactive) | > 100 µM (inactive) | > 100 µM (inactive) | > 100 µM (inactive) | > 100 µM (inactive) | – | > 100 µM (inactive) | > 100 µM (inactive) | > 100 µM (inactive) | > 100 µM (inactive) | > 100 µM (inactive) | – | > 100 µM (inactive) | > 100 µM (inactive) | > 100 µM (inactive) | > 100 µM (inactive) | > 100 µM (inactive) | > 100 µM (inactive)
9 | Clc1ccc(Cc2nc3cc(Cl)ccc3o2)cc1 | 46.1 µM (inactive) | – | 41.4 µM (inactive) | 27.9 µM (inactive) | 36.9 µM (inactive) | 24.4 µM (inactive) | 21.6 µM (inactive) | 30.9 µM (inactive) | 15.3 µM (inactive) | 35.6 µM (inactive) | 35.1 µM (inactive) | 31.7 µM (inactive) | 42.1 µM (inactive) | 36.1 µM (inactive) | 32.4 µM (inactive) | 60.8 µM (inactive) | 15.7 µM (inactive) | 29.7 µM (inactive) | 31.6 µM (inactive)
10 | COc1cc(O)c2c(O)c3c(=O)oc(C)cc3c(OC)c2c1 [PAEPALANTINE] | 23 µM (inactive) | 49.8 µM (inactive) | 25 µM (inactive) | 34.8 µM (inactive) | 21.9 µM (inactive) | 14.7 µM (inactive) | – | 20 µM (inactive) | 25.2 µM (inactive) | 23.7 µM (inactive) | 20.6 µM (inactive) | 28.4 µM (inactive) | 32.4 µM (inactive) | 27.4 µM (inactive) | 28.4 µM (inactive) | 41.6 µM (inactive) | 31.9 µM (inactive) | 27.5 µM (inactive) | 16.1 µM (inactive)
11 | O=C1OC(=O)c2cc(S(=O)(=O)c3ccc4c(c3)C(=O)OC4=O)ccc21 | > 100 µM (inactive) | > 100 µM (inactive) | > 100 µM (inactive) | > 100 µM (inactive) | > 100 µM (inactive) | > 100 µM (inactive) | > 100 µM (inactive) | > 100 µM (inactive) | > 100 µM (inactive) | > 100 µM (inactive) | > 100 µM (inactive) | > 100 µM (inactive) | > 100 µM (inactive) | > 100 µM (inactive) | > 100 µM (inactive) | > 100 µM (inactive) | > 100 µM (inactive) | > 100 µM (inactive) | –
12 | O=C1c2cc([N+](=O)[O-])cnc2S(=O)(=O)N1c1ccc(Br)cc1 | – | – | > 100 µM (inactive) | > 100 µM (inactive) | > 100 µM (inactive) | > 100 µM (inactive) | > 100 µM (inactive) | > 100 µM (inactive) | > 100 µM (inactive) | > 100 µM (inactive) | > 100 µM (inactive) | > 100 µM (inactive) | > 100 µM (inactive) | > 100 µM (inactive) | > 100 µM (inactive) | > 100 µM (inactive) | > 100 µM (inactive) | > 100 µM (inactive) | > 100 µM (inactive)
13 | O=[N+]([O-])c1ccc(N2N=C(c3ccc4ccccc4c3O)CC2c2ccc(Cl)cc2Cl)c([N+](=O)[O-])c1 (centres undefined) | 15.4 µM (inactive) | 25.4 µM (inactive) | 65.8 µM (inactive) | 49.1 µM (inactive) | 26.7 µM (inactive) | 41.7 µM (inactive) | 30.3 µM (inactive) | 18.8 µM (inactive) | 29.1 µM (inactive) | 25.2 µM (inactive) | 23.6 µM (inactive) | 30.9 µM (inactive) | 51.1 µM (inactive) | 40.9 µM (inactive) | 35.1 µM (inactive) | 55.5 µM (inactive) | 30.3 µM (inactive) | 29 µM (inactive) | –
14 | COC1CC(OC2CCC3(C)C(CCC45CCC(C6=CC(=O)OC6)C(C)(CCC43)C5=O)C2)OC(C)C1O (centres undefined) | 59.8 µM (inactive) | 24 µM (inactive) | > 100 µM (inactive) | 20.8 µM (inactive) | > 100 µM (inactive) | – | 13.1 µM (inactive) | > 10 µM (inactive) | 18.1 µM (inactive) | 22.1 µM (inactive) | 35.1 µM (inactive) | > 100 µM (inactive) | 18 µM (inactive) | > 100 µM (inactive) | 39.3 µM (inactive) | 15.9 µM (inactive) | 31.3 µM (inactive) | 64.4 µM (inactive) | 81.5 µM (inactive)
15 | CC(C)=NC(C(=O)O)C(C)(C)S (centres undefined) | > 100 µM (inactive) | > 100 µM (inactive) | > 100 µM (inactive) | > 100 µM (inactive) | > 100 µM (inactive) | > 100 µM (inactive) | – | > 100 µM (inactive) | – | > 100 µM (inactive) | > 100 µM (inactive) | > 100 µM (inactive) | > 100 µM (inactive) | > 100 µM (inactive) | > 100 µM (inactive) | > 100 µM (inactive) | > 100 µM (inactive) | > 100 µM (inactive) | > 100 µM (inactive)
